Drawing on patent US20090221642A1, “MUSCARINIC RECEPTOR AGONISTS, COMPOSITIONS, METHODS OF TREATMENT THEREOF, AND PROCESSES FOR PREPARATION THEREOF-176” (AstraZeneca AB, priority 2008, published 2009), this text covers EC50 for 18 compounds.

The target in experiment [1] is T1, cloned human M2 receptor (human Muscarinic receptor subtype 2) (Homo sapiens, UniProt P08172).
T1 construct: purchased Perkin-Elmer RBHM2M; host or cells: Chinese hamster ovary cells (CHO) membranes
T1 sequence (P08172 1-466): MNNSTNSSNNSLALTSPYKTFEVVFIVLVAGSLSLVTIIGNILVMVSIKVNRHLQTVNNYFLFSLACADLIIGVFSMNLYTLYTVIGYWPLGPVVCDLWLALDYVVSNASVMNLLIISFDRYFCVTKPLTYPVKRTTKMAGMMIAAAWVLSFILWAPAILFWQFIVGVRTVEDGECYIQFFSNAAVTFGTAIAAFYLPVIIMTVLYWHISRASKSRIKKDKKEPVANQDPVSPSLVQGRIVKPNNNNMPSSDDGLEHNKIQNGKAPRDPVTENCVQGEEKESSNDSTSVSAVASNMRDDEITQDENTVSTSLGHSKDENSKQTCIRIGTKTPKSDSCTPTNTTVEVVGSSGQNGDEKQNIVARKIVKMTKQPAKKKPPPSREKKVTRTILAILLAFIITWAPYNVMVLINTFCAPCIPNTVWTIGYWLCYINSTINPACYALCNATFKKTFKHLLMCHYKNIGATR
Kind of experiment: hM2 receptor GTPγS binding. The format is biochemical. The following applies: CHO cell membranes expressing hM2; [35S]GTPγS binding; read-out: hM2 EC50. As to the method: hM2 Receptor GTPγS Binding
Membranes produced from Chinese hamster ovary cells (CHO) expressing the cloned human M2 receptor (human Muscarinic receptor subtype 2, gene bank access NM_000739), are obtained from Perkin-Elmer (RBHM2M). The membranes are thawed at 37° C., passed 3 times through a 23-gauge blunt-end needle, diluted in the GTPγS binding buffer (50 mM Hepes, 20 mM NaOH, 100 mM NaCl, 1 mM EDTA, 5 mM MgCl2, pH 7.4, 100 μM DTT). The EC50, IC50 and Emax of the compounds of the invention are evaluated from 10-point dose-response curves (three fold concentration range) done in 60 μl in 384-well non-specific binding surface plate (Corning). Ten microliters from the dose-response curves plate (5× concentration) are transferred to another 384 well plate containing 25 μl of the following: 5 μg of hM2 membranes, 500 μg of Flashblue beads (Perkin-Elmer) and GDP 25 μM. An additional 15 μl containing 3.3× (60,000 dpm) of GTPγ^35S (0.4 nM final) are added to the wells resulting in a total well volume of 50 μl. Basal and maximal stimulated [^35S]GTPγS binding are determined in absence and presence of 30 μM final of acetylcholine agonist. The membranes/beads mix are pre-incubated for 15 minutes at room temperature with 25 μM GDP prior to distribution in plates (12.5 μM final). The reversal of acetylcholine-induced stimulation (2 μM final) of [^35S]GTPγS binding is used to assay the antagonist properties (IC50) of the compounds. The plates are incubated for 60 minutes at room temperature then centrifuged at 400 rpm for 5 minutes. The radioactivity (cpm) is counted in a Trilux (Perkin-Elmer).
Values of EC50, IC50 and Emax are obtained using sigmoidal fits of a non-linear curve-fitting program (XLfit version 4.2.2 Excel add-in version 4.2.2 build 18 math 1Q version 2.1.2 build 18) of percent stimulated [^35S]GTPγS binding vs. log(molar ligand). All pEC50 and plC50 values are reported as arithmetic means ±standard error of mean of ‘n’ independent experiments.
A general note: GTPγS is a poorly hydrolysed GTP analogue; its binding reports G protein activation.

Experiment [2] has as its target T2, hM1 (human Muscarinic receptor subtype 1) (Homo sapiens, UniProt P11229).
T2 construct: expressed in transfected cells; host or cells: CHO cells (Chinese hamster ovary cells, ATCC)
T2 sequence (P11229 1-460): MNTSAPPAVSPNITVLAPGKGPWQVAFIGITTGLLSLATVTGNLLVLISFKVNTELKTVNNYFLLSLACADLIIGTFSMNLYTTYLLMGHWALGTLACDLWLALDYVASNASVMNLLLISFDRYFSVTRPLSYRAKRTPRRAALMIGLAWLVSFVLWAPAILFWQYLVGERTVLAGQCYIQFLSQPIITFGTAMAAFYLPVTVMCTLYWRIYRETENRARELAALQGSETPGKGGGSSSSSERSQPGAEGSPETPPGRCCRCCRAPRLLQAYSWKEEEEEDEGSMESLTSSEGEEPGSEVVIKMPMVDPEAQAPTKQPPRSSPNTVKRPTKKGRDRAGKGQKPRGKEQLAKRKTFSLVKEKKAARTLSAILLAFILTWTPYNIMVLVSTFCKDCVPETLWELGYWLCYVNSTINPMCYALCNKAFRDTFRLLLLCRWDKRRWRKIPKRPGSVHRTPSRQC
Kind of experiment: Human M1 calcium mobilization FLIPR assay. The class given is cell-based. The following applies: hM1 expressed in CHO cells, intracellular Ca2+ release, read-out: hM1 EC50. An outline of the steps: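 CHO cells expressing the receptor, dye-loaded at 37°C for 60 min, read on FLIPR at 510-570 nm. Agonism taken from compound-induced Ca2+ rise (max RFU for M1); M3/M5 inhibition measured against 2 nM acetylcholine using max minus min RFU. 10-point threefold dilutions, sigmoidal fits.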

The structures appear in SMILES notation.

One may read the EC50 as the concentration needed to bring the measured effect to its halfway point. Consider `CCOC(=O)N1CCC(C)(N2CCC(n3c(=O)[nH]c4ccc(F)cc43)CC2)C1` (single isomer, unassigned) [Example 50, ethyl 3-(4-(6-fluoro-2-oxo-2,3-dihydro-1H-benzo[d]imidazol-1-yl)piperidin-1-yl)-3-methylpyrrolidine-1-carboxylate], for which the figures for the EC50 in experiment [1] and in experiment [2] were 0.498 µM and 0.0022 µM, respectively.
On the same counts, the results for `COC(=O)N1CCC(C)(N2CCC(n3c(=O)[nH]c4ccc(F)cc43)CC2)C1` (single isomer, unassigned) [Example 52, methyl 3-(4-(6-fluoro-2-oxo-2,3-dihydro-1H-benzo[d]imidazol-1-yl)piperidin-1-yl)-3-methylpyrrolidine-1-carboxylate] are 1.24 µM and 0.0147 µM.
In the case of `CC1(N2CCC(n3c(=O)[nH]c4ccc(F)cc43)CC2)CCN(C(=O)OCCF)C1` (single isomer, unassigned) [Example 53, 2-fluoroethyl 3-(4-(6-fluoro-2-oxo-2,3-dihydro-1H-benzo[d]imidazol-1-yl)piperidin-1-yl)-3-methylpyrrolidine-1-carboxylate], the EC50 came to 1.62 µM in experiment [1] and 0.0115 µM in experiment [2].
The matching figures for `CCOC(=O)N1CCC(C)(N2CCC(n3c(=O)[nH]c4cc(F)c(C)cc43)CC2)C1` (single isomer, unassigned) [Example 55, ethyl 3-(4-(5-fluoro-6-methyl-2-oxo-2,3-dihydro-1H-benzo[d]imidazol-1-yl)piperidin-1-yl)-3-methylpyrrolidine-1-carboxylate]: 0.319 µM and 0.0049 µM.
On the same counts, the results for `CCOC(=O)N1CCC(C)(N2CCC(n3c(=O)[nH]c4cc(F)c(C)cc43)CC2)C1` (single isomer, unassigned) [Example 56, ethyl 3-(4-(5-fluoro-6-methyl-2-oxo-2,3-dihydro-1H-benzo[d]imidazol-1-yl)piperidin-1-yl)-3-methylpyrrolidine-1-carboxylate] are 0.024 µM and 0.0035 µM.
The matching figures for `CCOC(=O)N1CCC(C)(N2CCC(n3c(=O)[nH]c4cc(F)c(F)cc43)CC2)C1` (single isomer, unassigned) [Example 57, ethyl 3-(4-(5,6-difluoro-2-oxo-2,3-dihydro-1H-benzo[d]imidazol-1-yl)piperidin-1-yl)-3-methylpyrrolidine-1-carboxylate]: 0.428 µM and 0.0026 µM.
Take `CCOC(=O)N1CCC(C)(N2CCC(n3c(=O)[nH]c4cc(F)c(F)cc43)CC2)C1` (single isomer, unassigned) [Example 58, ethyl 3-(4-(5,6-difluoro-2-oxo-2,3-dihydro-1H-benzo[d]imidazol-1-yl)piperidin-1-yl)-3-methylpyrrolidine-1-carboxylate]: the values for the EC50 in experiment [1] and in experiment [2] were 2.1 µM and 0.0177 µM, respectively.
The matching figures for `COC(=O)N1CCC(C)(N2CCC(n3c(=O)[nH]c4cc(F)c(F)cc43)CC2)C1` (single isomer, unassigned) [Example 60, methyl 3-(4-(5,6-difluoro-2-oxo-2,3-dihydro-1H-benzo[d]imidazol-1-yl)piperidin-1-yl)-3-methylpyrrolidine-1-carboxylate]: 1.03 µM and 0.0135 µM.
On the same counts, the results for `CC1(N2CCC(n3c(=O)[nH]c4cc(F)c(F)cc43)CC2)CCN(C(=O)OCCF)C1` (single isomer, unassigned) [Example 61, 2-fluoroethyl 3-(4-(5,6-difluoro-2-oxo-2,3-dihydro-1H-benzo[d]imidazol-1-yl)piperidin-1-yl)-3-methylpyrrolidine-1-carboxylate] are 1.71 µM and 0.0141 µM.
For the compound `COC(=O)N1CCC(C)(N2CCC(N3C(=O)Cc4ccc(C)cc43)CC2)C1` (single isomer, unassigned) [Example 67, methyl 3-methyl-3-(4-(6-methyl-2-oxoindolin-1-yl)piperidin-1-yl)pyrrolidine-1-carboxylate], the EC50 is 4.65 µM in experiment [1] and 0.0209 µM in experiment [2].
The matching figures for `COC(=O)N1CCC(C)(N2CCC(N3C(=O)Cc4ccc(C)cc43)CC2)C1` (single isomer, unassigned) [Example 68, methyl 3-methyl-3-(4-(6-methyl-2-oxoindolin-1-yl)piperidin-1-yl)pyrrolidine-1-carboxylate]: 1.15 µM and 0.0133 µM.
The matching figures for `CCOC(=O)N1CCC(C)(N2CCC(N3C(=O)Cc4ccc(C)cc43)CC2)C1` (single isomer, unassigned) [Example 69, ethyl 3-methyl-3-(4-(6-methyl-2-oxoindolin-1-yl)piperidin-1-yl)pyrrolidine-1-carboxylate]: 1.86 µM and 0.011 µM.
`CCOC(=O)N1CCC(C)(N2CCC(N3C(=O)Cc4ccc(C)cc43)CC2)C1` (single isomer, unassigned) [Example 70, ethyl 3-methyl-3-(4-(6-methyl-2-oxoindolin-1-yl)piperidin-1-yl)pyrrolidine-1-carboxylate]: the EC50 in experiment [1] came out at 0.448 µM; in experiment [2], 0.0098 µM.
On the same counts, the results for `CCOC(=O)N1CCC(C)(N2CCC(N3C(=O)Cc4ccccc43)CC2)C1` (single isomer, unassigned) [Example 72, ethyl 3-methyl-3-(4-(2-oxoindolin-1-yl)piperidin-1-yl)pyrrolidine-1-carboxylate] are 0.95 µM and 0.0095 µM.
On the same counts, the results for `CCOC(=O)N1CCC(C)(N2CCC(N3C(=O)Cc4ccccc43)CC2)C1` (single isomer, unassigned) [Example 73, ethyl 3-methyl-3-(4-(2-oxoindolin-1-yl)piperidin-1-yl)pyrrolidine-1-carboxylate] are 6.16 µM and 0.031 µM.
The matching figures for `CCOC(=O)N1CCC(C)(N2CCC(N3C(=O)Cc4ccc(F)cc43)CC2)C1` (single isomer, unassigned) [Example 74, ethyl 3-(4-(6-fluoro-2-oxoindolin-1-yl)piperidin-1-yl)-3-methylpyrrolidine-1-carboxylate]: 1.34 µM and 0.01 µM.
Consider `CCOC(=O)N1CCC(C)(N2CCC(N3C(=O)Cc4ccc(F)cc43)CC2)C1` (single isomer, unassigned) [Example 75, ethyl 3-(4-(6-fluoro-2-oxoindolin-1-yl)piperidin-1-yl)-3-methylpyrrolidine-1-carboxylate], for which the EC50 in experiment [1] was 2.62 µM; in experiment [2] it was 0.0475 µM.
On the same counts, the results for `COC(=O)N1CCC(C)(N2CCC(N3C(=O)Cc4ccc(F)cc43)CC2)C1` (single isomer, unassigned) [Example 76, methyl 3-(4-(6-fluoro-2-oxoindolin-1-yl)piperidin-1-yl)-3-methylpyrrolidine-1-carboxylate] are 3.5 µM and 0.0401 µM.
